Key:
[1] = Selectivity index, ratio of CC50 for cytotoxicity against human HePAD38 cells to EC50 for antiviral activity against Hepatitis B virus infected in human HePAD38 cells; format: toxicity, cell-based; details: read-out: Ratio CC50/EC50
Hepatitis B virus = assay: Antiviral activity against Hepatitis B virus infected in human HePAD38 cells assessed as inhibition of viral DNA replication by qPCR analysis; format: functional, organism-based
[2] = Cytotoxicity against human HePAD38 cells assessed as reduction in cell viability incubated for 72 hrs by CCK8 assay; format: toxicity, cell-based
Core antigen = Core antigen (Hepatitis B virus, UniProt Q03732); assay: Inhibition of fluorescent-labeled capsid assembly in Hepatitis B virus incubated for 1 hr by fluorescence based analysis
Core antigen, sequence (Q03732 whole entry): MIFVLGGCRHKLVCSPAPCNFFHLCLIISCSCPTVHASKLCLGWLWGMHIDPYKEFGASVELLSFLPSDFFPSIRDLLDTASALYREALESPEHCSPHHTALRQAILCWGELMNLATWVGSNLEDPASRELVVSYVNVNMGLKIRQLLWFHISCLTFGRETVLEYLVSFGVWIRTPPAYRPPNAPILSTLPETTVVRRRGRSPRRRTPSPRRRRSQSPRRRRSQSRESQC

Compound | selectivity ratio [1] | EC50 (Hepatitis B virus) [nM] | CC50 at 72 h [2] [µM] | IC50 (Core antigen) [nM]
Cc1cc(NC(=O)c2cc(NC(=O)N3CCC(O)CC3)c(F)cc2Br)ccc1F | > 23 | 4340 | > 100 | 
Cc1cc(NC(=O)c2cc(NC(=O)C3CC3)c(F)cc2Br)ccc1F | 155 | 540 | 84 | 
O=C(Nc1ccc(F)c(F)c1)c1cc(S(=O)(=O)N[C@H]2CCOC2)c(F)cc1Br | 67.8 | 940 | 63.7 | 
N#Cc1cc(NC(=O)c2cc(S(=O)(=O)N[C@H]3CCOC3)c(F)cc2Br)ccc1F | > 15.4 | 6490 | > 100 | 
Cc1cc(NC(=O)c2cc(NC(=O)NCc3ccc(C(F)(F)F)cc3)c(F)cc2Br)ccc1F | 35.6 | 330 | 11.8 | 
Cc1cc(NC(=O)c2cc(NC(=O)C3CCC3)c(F)cc2Br)ccc1F | 23 | 3460 | 79.6 | 
Cc1cc(NC(=O)c2cc(NC(=O)NCc3cc(F)cc(F)c3)c(F)cc2Br)ccc1F | 20.7 | 180 | 3.72 | 
O=C(Nc1cc(F)c(F)c(F)c1)c1cc(S(=O)(=O)NC2CCCC2)c(F)cc1Br | 313 | 110 | 34.5 | 
Cc1cc(NC(=O)c2cc(NC(=O)NC(C)C)c(F)cc2Br)ccc1F | 16.6 | 1150 | 19.1 | 
Cc1cc(NC(=O)c2cc(S(=O)(=O)NC3CCCC3)c(F)cc2Br)ccc1F | > 227 | 440 | > 100 | 
CCNC(=S)Nc1cc(C(=O)Nc2ccc(F)c(C)c2)c(Br)cc1F | 242 | 180 | 43.6 | 
C=C1[C@H](CO)[C@@H](O)C[C@@H]1n1cnc2c(=O)[nH]c(N)nc21 [ENTECAVIR ANHYDROUS] | 3780 | 21 | 79.3 | 
Cc1ccc(C(=O)Nc2cc(C(=O)Nc3ccc(F)c(C)c3)c(Br)cc2F)cc1 | 40.1 | 520 | 20.9 | 
Cc1cc(NC(=O)c2cc(NC(=O)C(=O)NC3CC3)c(F)cc2Br)ccc1F | 25.3 | 670 | 17 | 
O=C(Nc1cc(F)c(F)c(F)c1)c1cc(S(=O)(=O)N[C@H]2CCOC2)c(F)cc1Br | 18.8 | 4700 | 88.2 | 
Cc1cc(NC(=O)c2cc(NC(=O)Nc3ccc(C(F)(F)F)cc3)c(F)cc2Br)ccc1F | 0.67 | 5210 | 3.5 | 
Cc1cc(NC(=O)c2cc(NC(=S)NC(C)C(F)(F)F)c(F)cc2Br)ccc1F (centres undefined) | 710 | 24 | 17.1 | 
Cc1cc(CNC(=O)Nc2cc(C(=O)Nc3ccc(F)c(C)c3)c(Br)cc2F)ccc1F | 10.2 | 320 | 3.28 | 
Cc1cc(NC(=O)c2cc(NC(=O)C3CCCCC3)c(F)cc2Br)ccc1F | 15.3 | 1350 | 20.7 | 
Cc1cc(NC(=O)c2cc(NC(=O)c3ccc(C#N)cc3)c(F)cc2Br)ccc1F | 572 | 150 | 85.7 | 
O=C(Nc1ccc(F)c(C(F)(F)F)c1)c1cc(S(=O)(=O)NC2CCCC2)c(F)cc1Br |  | > 20000 | > 100 | 

Compound | selectivity ratio [1] | EC50 (Hepatitis B virus) [nM] | CC50 at 72 h [2] [µM] | IC50 (Core antigen) [nM]
O=C(Nc1ccc(F)cc1)c1cc(S(=O)(=O)N[C@H]2CCOC2)c(F)cc1Br | > 41.8 | 2390 | > 100 | 
Cc1cc(NC(=O)c2cc(S(=O)(=O)N[C@H]3CCOC3)c(F)cc2Br)ccc1F | > 164 | 610 | > 100 | 
O=C(Nc1ccc(F)cc1)c1cc(S(=O)(=O)NC2CCCC2)c(F)cc1Br | 74.4 | 780 | 58 | 
Cc1cc(NC(=O)c2cc(NC(=S)NC(C)C)c(F)cc2Br)ccc1F | > 714 | 140 | > 100 | 940
Cc1cc(NC(=O)c2cc(NC(=O)NCc3cccnc3)c(F)cc2Br)ccc1F | > 200 | 500 | > 100 | 
O=C(Nc1cc(F)c(F)c(F)c1)c1ccc(F)c(S(=O)(=O)N2CCC(O)CC2)c1 | 47.6 | 350 | 16.7 | 1530
CCN(CC)S(=O)(=O)c1cc(C(=O)Nc2cc(F)c(F)c(F)c2)c(Br)cc1F | 9.72 | 460 | 4.47 | 
Cc1cc(NC(=O)c2cc(NC(=O)Nc3cc(F)c(F)c(F)c3)c(F)cc2Br)ccc1F | 2.19 | 1180 | 2.59 | 
C=CCNC(=S)Nc1cc(C(=O)Nc2ccc(F)c(C)c2)c(Br)cc1F | 358 | 140 | 50.1 | 
Cc1cc(NC(=O)c2cc(NC(=O)c3cc(F)c(F)c(F)c3)c(F)cc2Br)ccc1F | 21.8 | 830 | 18.1 | 
C/C=C/C(=O)Nc1cc(C(=O)Nc2ccc(F)c(C)c2)c(Br)cc1F | 14.4 | 1980 | 28.5 | 
O=C(Nc1cc(F)cc(F)c1)c1cc(S(=O)(=O)NC2CCCC2)c(F)cc1Br | > 123 | 810 | > 100 | 
Cc1cc(NC(=O)c2cc(NC(=O)c3ccc(Br)cc3)c(F)cc2Br)ccc1F | 12.6 | 190 | 2.4 | 
Cc1cc(NC(=O)c2cc(NC(=S)NCc3ccc(B(O)O)cc3)c(F)cc2Br)ccc1F | 106 | 29 | 3.08 | 
Cc1cc(NC(=O)c2cc(NC(=O)c3cccs3)c(F)cc2Br)ccc1F | 129 | 660 | 85.1 | 
COc1ccc(CNC(=O)Nc2cc(C(=O)Nc3ccc(F)c(C)c3)c(Br)cc2F)cc1 | 56.1 | 87 | 4.88 | 
Cc1cc(NC(=O)c2cc(NC(=O)NCc3ccc(O)cc3)c(F)cc2Br)ccc1F | 16.6 | 120 | 1.99 | 
Cc1cc(NC(=O)c2cc(NC(=O)NC3CCCC3)c(F)cc2Br)ccc1F | 0.96 | 5770 | 5.52 | 
COCCC(=O)Nc1cc(C(=O)Nc2ccc(F)c(C)c2)c(Br)cc1F | 27.4 | 3550 | 97.4 | 
Cc1cc(NC(=O)c2cc(NC(=S)NCc3ccc(B(O)O)cc3)c(F)cc2C)ccc1F | 595 | 10 | 5.95 | 
O=C(Nc1ccc(F)c(C(F)(F)F)c1)c1cc(S(=O)(=O)N[C@H]2CCOC2)c(F)cc1Br | > 19.8 | 5060 | > 100 | 

Compound | selectivity ratio [1] | EC50 (Hepatitis B virus) [nM] | CC50 at 72 h [2] [µM] | IC50 (Core antigen) [nM]
Cc1cc(NC(=O)c2cc(NC(=O)c3ccc(C(F)(F)F)cc3)c(F)cc2Br)ccc1F | 4.83 | 1010 | 4.88 | 
Cc1cc(NC(=O)c2cc(NC(=O)NCc3ccc(F)cc3)c(F)cc2Br)ccc1F | 54.4 | 340 | 18.5 | 
N#Cc1cc(NC(=O)c2cc(S(=O)(=O)NC3CCCC3)c(F)cc2Br)ccc1F | 13.3 | 1450 | 19.3 | 
O=C(Nc1ccc(F)c(Cl)c1)c1cc(S(=O)(=O)N[C@H]2CCOC2)c(F)cc1Br | 21.9 | 940 | 20.6 | 
Cc1cc(NC(=O)c2cc(NC(=O)NCc3ccc(C(C)(C)C)cc3)c(F)cc2Br)ccc1F | > 42.9 | 2330 | > 100 | 
Cc1cc(NC(=O)c2cc(NC(=O)C(=O)NC3CCCC3)c(F)cc2Br)ccc1F | < 0.87 | > 20000 | 17.4 | 
Cc1cc(NC(=O)c2cc(NC(=O)NCc3cc(F)c(F)c(F)c3)c(F)cc2Br)ccc1F | 5.13 | 720 | 3.69 | 
O=C(Nc1cc(F)c(F)c(F)c1)c1cc(S(=O)(=O)N2CCC(O)CC2)c(F)cc1Br | 1.98 | 1720 | 3.41 | 
Cc1cc(NC(=O)c2cc(NC(=O)c3ccc(F)cc3)c(F)cc2Br)ccc1F | 2.59 | 460 | 1.19 | 
Cc1cc(NC(=O)c2cc(NC(=O)NC3CCC(O)CC3)c(F)cc2Br)ccc1F (centres undefined) | > 13.6 | 7330 | > 100 | 
Cc1cc(NC(=O)c2cc(NC(=S)NCc3ccc(C(F)(F)F)cc3)c(F)cc2Br)ccc1F | 16.1 | 200 | 3.22 | 
Cc1cc(NC(=O)c2cc(NC(=O)C3CCCC3)c(F)cc2Br)ccc1F | > 93.5 | 1070 | > 100 | 
CCCc1ccc(C(=O)Nc2cc(C(=O)Nc3ccc(F)c(C)c3)c(Br)cc2F)cc1 | 55.1 | 580 | 32 | 
Nc1ccn([C@@H]2CS[C@H](CO)O2)c(=O)n1 [LAMIVUDINE] | > 25.1 | 3980 | > 100 | 
Cc1cc(CNC(=S)Nc2cc(C(=O)Nc3ccc(F)c(C)c3)c(Br)cc2F)ccc1F | 37.1 | 100 | 3.71 | 
Cc1cc(NC(=O)c2cc(NC(=O)C(=O)NC(C)C)c(F)cc2Br)ccc1F | > 496 | 200 | > 100 | 
C=CC(=O)Nc1cc(C(=O)Nc2ccc(F)c(C)c2)c(Br)cc1F | 3.59 | 2220 | 7.98 | 
CCC(CC)NC(=O)Nc1cc(C(=O)Nc2ccc(F)c(C)c2)c(Br)cc1F | 18.2 | 990 | 18.1 | 
Cc1cc(NC(=O)c2cc(NC(=S)NCc3cc(F)cc(F)c3)c(F)cc2Br)ccc1F | 16.4 | 220 | 3.61 | 

Source: ChEMBL document CHEMBL5370621, “Design, Synthesis, and Biological Evaluation of Novel Thioureidobenzamide (TBA) Derivatives as HBV Capsid Assembly Modulators” (J Med Chem, 2023)
